Reference: PubChem BioAssay AID264 (DTP/NCI, 2004)
Where “and” joins values, the source holds several entries; their conditions need not be identical. Equal entries are not always repeated. Inconclusive results are not listed.

System: nude mice, LX-1 lung xenograft intrarenal, tumor weight T/C
Assay: NCI In Vivo Anticancer Drug Screen. Data for tumor model Human Lung LX-1 Xenograft (intrarenal inoculation) in NU/NU Swiss (nude) mice
Conditions: endpoint: mean tumor weight change, higher = larger tumour
Method in brief: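 Readout: T/C, i.e. treated-group tumor measurement over vehicle-control measurement. Mice bearing transplantable tumors were dosed with compound or vehicle.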

[1] = dose: 12.5 mg/kg/injection, schedule: Q01DX010 (sc), vehicle: Klucel (hydroxypropylcellulose) (HPC)
[2] = dose: 25.0 mg/kg/injection, schedule: Q01DX010 (sc), vehicle: Klucel (hydroxypropylcellulose) (HPC)
[3] = dose: 100.0 mg/kg/injection, schedule: Q01DX010 (sc), vehicle: Klucel (hydroxypropylcellulose) (HPC)
[4] = dose: 50.0 mg/kg/injection, schedule: Q01DX010 (sc), vehicle: water
[5] = dose: 300.0 mg/kg/injection, schedule: Q04DX003 (sc), vehicle: saline with Tween-80
[6] = dose: 600.0 mg/kg/injection, schedule: Q04DX003 (sc), vehicle: saline with Tween-80
[7] = dose: 1200.0 mg/kg/injection, schedule: Q04DX003 (sc), vehicle: saline with Tween-80
[8] = dose: 2400.0 mg/kg/injection, schedule: Q04DX003 (sc), vehicle: saline with Tween-80
[9] = dose: 20.0 mg/kg/injection, schedule: Q01DX010 (sc), vehicle: saline
[10] = dose: 40.0 mg/kg/injection, schedule: Q01DX010 (sc), vehicle: saline
[11] = dose: 100.0 mg/kg/injection, schedule: Q01DX010 (sc), vehicle: saline with Tween-80
[12] = dose: 200.0 mg/kg/injection, schedule: Q01DX010 (sc), vehicle: saline with Tween-80
[13] = dose: 400.0 mg/kg/injection, schedule: Q01DX010 (sc), vehicle: saline with Tween-80
[14] = dose: 800.0 mg/kg/injection, schedule: Q01DX010 (sc), vehicle: saline with Tween-80
[15] = dose: 12.5 mg/kg/injection, schedule: Q01DX010 (sc), vehicle: water
[16] = dose: 25.0 mg/kg/injection, schedule: Q01DX010 (sc), vehicle: water

`O=P1(N(CCCl)CCCl)NCCCO1` (configuration not stated) was tested, and the T/C (dose: 3.13 mg/kg/injection, schedule: Q01DX010 (sc), vehicle: saline) was 76 % of control, the T/C (dose: 6.25 mg/kg/injection, schedule: Q01DX010 (ip), vehicle: saline) was 48 % of control and the T/C (dose: 6.25 mg/kg/injection, schedule: Q01DX010 (sc), vehicle: saline) was 85 % of control. For the same compound, the T/C (dose: 12.5 mg/kg/injection, schedule: Q01DX010 (ip), vehicle: saline) was 29 % of control, the T/C (dose: 20.8 mg/kg/injection, schedule: Q04DX003 (ip), vehicle: saline) was 151 % of control and the T/C (dose: 25.0 mg/kg/injection, schedule: Q01DX010 (ip), vehicle: saline) was 56 % of control. The T/C (dose: 41.66 mg/kg/injection, schedule: Q04DX003 (ip), vehicle: saline) was 51 % of control, the T/C (dose: 41.66 mg/kg/injection, schedule: Q04DX003 (sc), vehicle: saline) was 44 % of control and the T/C (dose: 50.0 mg/kg/injection, schedule: Q04DX003 (sc), vehicle: suspension in saline) was 87 % of control and 92 % of control. For the same compound, the T/C (dose: 83.33 mg/kg/injection, schedule: Q04DX003 (sc), vehicle: saline) was 20 % of control, the T/C (dose: 100.0 mg/kg/injection, schedule: Q04DX003 (sc), vehicle: saline) was 28 % of control and the T/C (dose: 100.0 mg/kg/injection, schedule: Q04DX003 (sc), vehicle: suspension in saline) was 70 % of control and 90 % of control. The T/C (dose: 200.0 mg/kg/injection, schedule: Q04DX003 (sc), vehicle: saline) was 13 % of control and the T/C (dose: 200.0 mg/kg/injection, schedule: Q04DX003 (sc), vehicle: suspension in saline) was 42 % of control.

With `O=C(O)C1(C(=O)O)CCC1.[NH2-].[NH2-].[Pt+2]` the T/C (dose: 6.25 mg/kg/injection, schedule: Q01DX010 (sc), vehicle: dextrose) was 73 % of control, the T/C (dose: 12.5 mg/kg/injection, schedule: Q01DX010 (sc), vehicle: dextrose) was 88 % of control and the T/C (dose: 25.0 mg/kg/injection, schedule: Q01DX010 (sc), vehicle: dextrose) was 68 % of control.

In the case of `Cc1cc(NCCCCCCCCNc2cc(C)nc3cc(N(C)C)ccc23)c2ccc(N(C)C)cc2n1`, the T/C (dose: 18.75 mg/kg/injection, schedule: Q01DX010 (sc), vehicle: saline with Tween-80) is reported as 56 % of control, the T/C (dose: 37.5 mg/kg/injection, schedule: Q01DX010 (sc), vehicle: saline with Tween-80) is reported as 34 % of control and 45 % of control and the T/C (dose: 75.0 mg/kg/injection, schedule: Q04DX003 (sc), vehicle: distilled water + Tween-80 + alcohol) is reported as 42 % of control and 60 % of control. The T/C (dose: 150.0 mg/kg/injection, schedule: Q04DX003 (sc), vehicle: distilled water + Tween-80 + alcohol) was 61 % of control and 72 % of control, the T/C (dose: 300.0 mg/kg/injection, schedule: Q04DX003 (sc), vehicle: distilled water + Tween-80 + alcohol) was 33 % of control and 39 % of control and the T/C (dose: 600.0 mg/kg/injection, schedule: Q04DX003 (sc), vehicle: distilled water + Tween-80 + alcohol) was 25 % of control.

In the case of `CCOC(=O)Nc1cc2c(c(N)n1)N=C(CN(C)c1ccccc1)CN2`, the T/C [1] is reported as 166 % of control, the T/C [2] is reported as 186 % of control and the T/C [3] is reported as 103 % of control.

For `CCCCc1ccc(-n2c(C)c(COC(=O)NC)c(COC(=O)NC)c2C)cc1`, the T/C [1] was 111 % of control, the T/C [2] was 92 % of control and the T/C (dose: 50.0 mg/kg/injection, schedule: Q01DX010 (sc), vehicle: Klucel (hydroxypropylcellulose) (HPC)) was 100 % of control. For the same compound, the T/C [3] was 104 % of control.

With `O=c1[nH]c(=O)n(C2CC(O)C(CO)O2)cc1F` (configuration not stated) the T/C [4] was 77 % of control and the T/C (dose: 100.0 mg/kg/injection, schedule: Q01DX010 (sc), vehicle: water) was 39 % of control.

For `CCOC(=O)CNC(=O)CCCCSc1ncnc2nc[nH]c12`, the T/C [5] was 80 % of control, the T/C [6] was 86 % of control and the T/C [7] was 85 % of control. For the same compound, the T/C [8] was 114 % of control.

`O=c1[nH]cc(F)c(=O)[nH]1` was tested, and the T/C (dose: 5.0 mg/kg/injection, schedule: Q01DX010 (sc), vehicle: saline) was 107 % of control, the T/C [9] was 56 % of control and the T/C [10] was 25 % of control.

In the case of `Nc1ncnc2c1ncn2C1OC(COP(=O)(O)O)C(O)C1O` (configuration not stated), the T/C (dose: 100.0 mg/kg/injection, schedule: Q01DX010 (sc), vehicle: saline) is reported as 38 % of control, the T/C (dose: 200.0 mg/kg/injection, schedule: Q01DX010 (sc), vehicle: saline) is reported as 78 % of control and the T/C (dose: 400.0 mg/kg/injection, schedule: Q01DX010 (sc), vehicle: saline) is reported as 59 % of control. For the same compound, the T/C (dose: 800.0 mg/kg/injection, schedule: Q01DX010 (sc), vehicle: saline) was 67 % of control.

With `COc1cccc2c1C(=O)c1c(O)c3c(c(O)c1C2=O)C[C@@](O)(/C(C)=N/NC(=O)c1ccccc1)C[C@@H]3OC1CC(N)C(O)C(C)O1` (some centres not stated) the T/C (dose: 2.5 mg/kg/injection, schedule: Q04DX003 (sc), vehicle: water) was 113 % of control, the T/C (dose: 10.0 mg/kg/injection, schedule: Q04DX003 (sc), vehicle: water) was 68 % of control and 71 % of control and 93 % of control and the T/C (dose: 18.75 mg/kg/injection, schedule: Q04DX003 (sc), vehicle: water) was 57 % of control. The T/C (dose: 20.0 mg/kg/injection, schedule: Q04DX003 (sc), vehicle: water) was 69 % of control and 79 % of control and 87 % of control, the T/C (dose: 37.5 mg/kg/injection, schedule: Q04DX003 (sc), vehicle: water) was 36 % of control and the T/C (dose: 40.0 mg/kg/injection, schedule: Q04DX003 (sc), vehicle: water) was 71 % of control. The T/C (dose: 75.0 mg/kg/injection, schedule: Q04DX003 (sc), vehicle: water) was 18 % of control and the T/C (dose: 80.0 mg/kg/injection, schedule: Q04DX003 (sc), vehicle: water) was 79 % of control.

For `COc1ccc2c(c1)CCn1c(C)c(COC(=O)NC(C)C)c(COC(=O)NC(C)C)c1-2`, the T/C (dose: 37.5 mg/kg/injection, schedule: Q04DX003 (sc), vehicle: distilled water + Tween-80) was 65 % of control, the T/C (dose: 75.0 mg/kg/injection, schedule: Q04DX003 (sc), vehicle: distilled water + Tween-80) was 64 % of control and the T/C (dose: 150.0 mg/kg/injection, schedule: Q04DX003 (sc), vehicle: distilled water + Tween-80) was 55 % of control. For the same compound, the T/C (dose: 300.0 mg/kg/injection, schedule: Q04DX003 (sc), vehicle: distilled water + Tween-80) was 63 % of control.

`CO[C@H]1C[C@@H]2CC[C@@H](C)[C@@](O)(O2)C(=O)C(=O)N2CCCC[C@H]2C(=O)O[C@H]([C@H](C)C[C@@H]2CC[C@@H](O)[C@H](OC)C2)CC(=O)[C@H](C)C=C(C)[C@@H](O)[C@@H](OC)C(=O)[C@H](C)C[C@H](C)/C=C/C=C/C=C1C` was tested, and the T/C [11] was 72 % of control, the T/C [12] was 47 % of control and the T/C [13] was 37 % of control. For the same compound, the T/C [14] was 69 % of control.

`O=C(C/C(=N\C(=S)Nc1cc(C(F)(F)F)ccc1Cl)NO)N1CCCC1` was tested, and the T/C [5] was 70 % of control, the T/C [6] was 120 % of control and the T/C [7] was 104 % of control. The T/C [8] was 106 % of control.

`CS(=O)(=O)OCCCNCCCOS(C)(=O)=O` was tested, and the T/C (dose: 75.0 mg/kg/injection, schedule: Q04DX003 (sc), vehicle: saline) was 71 % of control.

With `CN1N=C(N)c2cn(C3OC(COP(=O)(O)O)C(O)C3O)c3ncnc1c23` (configuration not stated) the T/C [15] was 107 % of control, the T/C [16] was 109 % of control and the T/C [4] was 81 % of control.

`CCOC(=O)c1ccc(NC(=O)Nc2nccs2)cc1` was tested, and the T/C [11] was 99 % of control, the T/C [12] was 107 % of control and the T/C [13] was 92 % of control. The T/C [14] was 66 % of control.

For `OCCN1CCN(CC/C=C2/c3ccccc3Sc3ccc(C(F)(F)F)cc32)CC1`, the T/C (dose: 10.0 mg/kg/injection, schedule: Q01DX010 (sc), vehicle: saline) was 54 % of control, the T/C [9] was 45 % of control and the T/C [10] was 29 % of control.

With `CC1(C)OCC2OC=CC(=O)C2O1` (configuration not stated) the T/C [5] was 89 % of control.

In the case of `N#CCCN(C(=S)Nc1cccc(C(F)(F)F)c1)C1CCCCC1`, the T/C (dose: 300.0 mg/kg/injection, schedule: Q04DX003 (sc), vehicle: Klucel (hydroxypropylcellulose) (HPC)) is reported as 60 % of control, the T/C (dose: 600.0 mg/kg/injection, schedule: Q04DX003 (sc), vehicle: Klucel (hydroxypropylcellulose) (HPC)) is reported as 55 % of control and the T/C (dose: 1200.0 mg/kg/injection, schedule: Q04DX003 (sc), vehicle: Klucel (hydroxypropylcellulose) (HPC)) is reported as 77 % of control. The T/C (dose: 2400.0 mg/kg/injection, schedule: Q04DX003 (sc), vehicle: Klucel (hydroxypropylcellulose) (HPC)) was 80 % of control.

In the case of `O=C(Nc1ccc(C2=NCCN2)cc1)c1ccc(C(=O)Nc2ccc(C3=NCCN3)cc2)c(Cl)c1`, the T/C [15] is reported as 74 % of control, the T/C [16] is reported as 71 % of control and the T/C [4] is reported as 34 % of control.
